Results taken from patent US6716987B1, “Derivatives of benzofuran or benzodioxazole compounds” (Kyowa Hakko Kogyo Co., Ltd., priority 1995, dated 2004).

Test system: cAMP-specific phosphodiesterase (PDE IV)
Test: Inhibition of the PDE IV enzyme derived from a dog trachea
Assay type: biochemical
Conditions: test compound 10^−6 M; PDE IV from dog tracheal smooth muscle; substrate cAMP 1 μM
Experimental: cAMP-specific phosphodiesterase (PDE IV) was purified from a dog tracheal smooth muscle according to the method of Torphy et al. [Molecular Pharmacol., 37, 206-214 (1990)]. The PDE activity was measured by the following two steps according to the method of Kincaid and Manganiello et al. [Method in Enzymology (J. D. Corbin and R. A. Jonson, Eds.), 199, 457-470 (1988)]. Using [^3]cAMP (at a final concentration of 1 μM) as a substrate, the reaction was carried out in a standard mixture containing N,N-bis(2-hydroxyethyl)-2-aminoethanesulfonic acid (50 mM, pH=7.2), MgCl2 (1 mM), and soybean trypsin inhibitor (0.1 mg/ml). The reaction was initiated by adding the enzyme, followed by incubation at 30° C. for 10 to 30 minutes. After stopping the reaction with hydrochloric acid, the generated […] was completely converted to adenosine by 5′-nucleotidase.
The resultant was subjected to chromatography on DEAE-Sephadex A-25, and radio activity of the eluted [^3H] adenosine was counted using a scintillation counter. Each of the test drugs was dissolved in DMSO (final concentration 1.7%) and then added to the mixture.

Row | Structure (SMILES) | Enzyme Inhibitory Activity (%, 10^−6 M) [%]
1 | COc1ccc(C(C#N)Cc2ccncc2)c2c1OC1(CCCC1)C2.Cl (racemic) [Compound 64, (±)-4-[1-Cyano-2-(4-pyridyl)ethyl]-7-methoxy-spiro[2,3-dihydrobenzofuran-2,1′-cyclopentane].hydrochloride] | 78
2 | COc1ccc(C(C)(C#N)Cc2ccncc2)c2c1OC1(CCCC1)C2.Cl (racemic) [Compound 65, (±)-4-[1-Cyano-1-methyl-2-(4-pyridyl)ethyl]-7-methoxy-spiro[2,3-dihydrobenzofuran-2,1′-cyclopentane].hydrochloride] | 74
3 | COc1ccc(C(Cc2ccncc2)c2ccccc2)c2cc(-c3ccncc3)oc12.Cl (racemic) [Compound 66, (±)-7-Methoxy-4-[1-phenyl-2-(4-pyridyl)ethyl]-2-(4-pyridyl)benzofuran.hydrochloride] | 49
4 | COc1ccc(/C=C/c2ccncc2)c2c1OCC2C (racemic) [Compound 79, (E)-(±)-7-Methoxy-3-methyl-4-[2-(4-pyridyl)ethenyl]-2,3-dihydrobenzofuran] | 45
5 | COc1ccc(C(=O)Cc2ccncc2)c2c1O[C@@H]1CCCC[C@H]21.Cl (racemic) [Compound 105, (±)-cis-6-Methoxy-9-[1-oxo-2-(4-pyridyl)ethyl]-1,2,3,4,4a,9b-hexahydrodibenzofuran.hydrochloride] | 66
6 | COc1ccc(C(=O)Nc2c(Cl)cncc2Cl)c2ccoc12 [Compound 33, 4-[(3,5-Dichloro-4-pyridyl)aminocarbonyl]-7-methoxy-benzofuran] | 71
7 | COc1ccc(C(=O)Nc2c(Cl)cncc2Cl)c2cc(C#N)oc12 [Compound 34, 2-Cyano-4-(3,5-dichloropyridin-4-ylaminocarbonyl)-7-methoxybenzofuran] | 100
8 | COc1ccc(C(=O)Nc2ccncc2)c2cc(-c3ccncc3)oc12.Cl.Cl [Compound 39, 7-Methoxy-2-(4-pyridyl)-4-(4-pyridylaminocarbonyl)-benzofuran.2 hydrochloride] | 77
9 | COc1ccc(C(=O)Nc2ccncc2)c2cc(-c3ccccn3)oc12.Cl.Cl [Compound 41, 7-Methoxy-2-(2-pyridyl)-4-[(4-pyridylamino)carbonyl]-benzofuran.2 hydrochloride] | 58
10 | CCC1(CC)Cc2c(CCc3c(Cl)cncc3Cl)ccc(OC)c2O1.CS(=O)(=O)O [Compound 50, 4-[2-(3,5-Dichloro-4-pyridyl)ethyl]-2,2-diethyl-7-methoxy-2,3-dihydrobenzofuran.methanesulfonate] | 69
11 | CCC1(CC)Cc2c(CCc3ccncc3)ccc(OC)c2O1.Cl [Compound 51, 2,2-Diethyl-7-methoxy-4-[2-(4-pyridyl)ethyl]-2,3-dihydrobenzofuran.hydrochloride] | 67
12 | COc1ccc(CCc2c(Cl)cncc2Cl)c2c1OC1(CCCC1)C2.CS(=O)(=O)O [Compound 52, 4-[2-(3,5-Dichloro-4-pyridyl)ethyl]-7-methoxy-spiro[2,3-dihydrobenzofuran-2,1′-cyclopentane].methanesulfonate] | 86
13 | COc1ccc(CCc2ccncc2)c2c1OC1(CCCC1)C2.Cl [Compound 53, 7-Methoxy-4-[2-(4-pyridyl)ethyl]-spiro[2,3-dihydro-benzofuran-2,1′-cyclopentane].hydrochloride] | 84
14 | COc1ccc(CCc2c(Cl)cncc2Cl)c2c1OC1(CCCCC1)C2.CS(=O)(=O)O [Compound 54, 4-[2-(3,5-Dichloro-4-pyridyl)ethyl]-7-methoxy-spiro[2,3-dihydrobenzofuran-2,1′-cyclohexane].methanesulfonate] | 81
15 | COc1ccc(CCc2ccncc2)c2c1OC1(CCCCC1)C2.Cl [Compound 55, 7-Methoxy-4-[2-(4-pyridyl)ethyl]-spiro[2,3-dihydro-benzofuran-2,1′-cyclohexane].hydrochloride] | 86
16 | COc1ccc(C(=Cc2ccncc2)c2ccccc2)c2c1OC(C)(C)C2 [Compound 70, 7-Methoxy-2,2-dimethyl-4-[1-phenyl-2-(4-pyridyl)-ethenyl]-2,3-dihydrobenzofuran] | 68
17 | CCC1(CC)Cc2c(/C=C/c3c(Cl)cncc3Cl)ccc(OC)c2O1.CS(=O)(=O)O [Compound 71, (E)-2,2-Diethyl-7-methoxy-4-[2-(3,5-dichloro-4-pyridyl)ethenyl]-2,3-dihydrobenzofuran.methanesulfonate] | 87

Row | Structure (SMILES) | Enzyme Inhibitory Activity (%, 10^−6 M) [%]
18 | COc1ccc(/C=C/c2ccncc2)c2c1OC1(CCCC1)C2.Cl [Compound 74, (E)-7-Methoxy-4-[2-(4-pyridyl)ethenyl]-spiro[2,3-dihydrobenzofuran-2,1′-cyclopentane].hydrochloride] | 73
19 | COc1ccc(C(C)=Cc2ccncc2)c2c1OC1(CCCC1)C2 [Compound 75, 7-Methoxy-4-[1-methyl-2-(4-pyridyl)ethenyl]-spiro[2,3-dihydrobenzofuran-2,1′-cyclopentane]] | 72
20 | COc1ccc(/C=C/c2c(Cl)cncc2Cl)c2c1OC1(CCCCC1)C2.CS(=O)(=O)O [Compound 76, (E)-4-[2-(3,5-Dichloro-4-pyridyl)ethenyl]-7-methoxy-spiro[2,3-dihydrobenzofuran-2,1′-cyclohexane].methanesulfonate] | 93
21 | COc1ccc(/C=C/c2ccncc2)c2c1OC1(CCCCC1)C2.Cl [Compound 77, (E)-7-Methoxy-4-[2-(4-pyridyl)ethenyl]-spiro[2,3-dihydrobenzofuran-2,1′-cyclohexane].hydrochloride] | 87
22 | COc1ccc(/C=C/c2ccncc2)c2cc(-c3ccccc3)oc12.Cl [Compound 81, (E)-7-Methoxy-2-phenyl-4-[2-(4-pyridyl)ethenyl]-benzofuran.hydrochloride] | 56
23 | COc1ccc(/C=C/c2ccncc2)c2cc(-c3ccncc3)oc12.Cl.Cl [Compound 83, (E)-7-Methoxy-2-(4-pyridyl)-4-[2-(4-pyridyl)ethenyl]-benzofuran.2 hydrochloride] | 89
24 | COc1ccc(/C=C/c2ccncc2)c2cc(-c3ccccn3)oc12.Cl.Cl [Compound 85, (E)-7-Methoxy-2-(2-pyridyl)-4-[2-(4-pyridyl)ethenyl]-benzofuran.2 hydrochloride] | 69
25 | COC(=O)c1cccc(NC(=O)/C=C/c2ccc(OC)c3c2CC2(CCCC2)O3)c1 [Compound 93, (E)-7-Methoxy-4-{2-[3-(methoxycarbony)phenyl-1-ylaminocarbonyl]ethenyl}-spiro[2,3-dihydrobenzofuran-2,1′-cyclopentane]] | 23
26 | CCC1(CC)Cc2c(C(=O)Cc3ccncc3)ccc(OC)c2O1.Cl [Compound 98, 2,2-Diethyl-7-methoxy-4-[1-oxo-2-(4-pyridyl)ethyl]-2,3-dihydrobenzofuran.hydrochloride] | 85
27 | COc1ccc(C(=O)Cc2ccccc2)c2cc(C(=O)c3ccccc3)oc12 [Compound 107, 2-Benzoyl-7-methoxy-4-(1-oxo-2-phenylethyl)benzofuran] | 63
28 | CCCCc1cc2c(C(=O)Cc3ccncc3)ccc(OC)c2o1.Cl [Compound 109, 2-Butyl-7-methoxy-4-[1-oxo-2-(4-pyridyl)ethyl]-benzofuran.hydrochloride] | 68
29 | COc1ccc(C(=O)Cc2ccncc2)c2cc(CC(C)C)oc12.Cl [Compound 110, 7-Methoxy-2-(2-methylpropyl)-4-[1-oxo-2-(4-pyridyl)-ethyl]benzofuran.hydrochloride] | 80
30 | COc1ccc(C(=O)Cc2ccncc2)c2cc(-c3ccccc3)oc12.Cl [Compound 111, 7-Methoxy-4-[1-oxo-2-(4-pyridyl)ethyl]-2-phenyl-benzofuran.hydrochloride] | 69
31 | COc1ccc(C(=O)Cc2ccncc2)c2cc(-c3ccncc3)oc12.Cl.Cl [Compound 115, 7-Methoxy-4-[1-oxo-2-(4-pyridyl)ethyl]-2-(4-pyridyl)-benzofuran.2 hydrochloride] | 85
32 | COc1ccc(C(=O)Cc2ccncc2)c2cc(-c3ccccn3)oc12.Cl.Cl [Compound 117, 7-Methoxy-4-[1-oxo-2-(4-pyridyl)ethyl]-2-(2-pyridyl)-benzofuran.2 hydrochloride] | 87
33 | COc1ccc(C(=O)Cc2ccncc2)c2c(-c3ccccc3)coc12.Cl [Compound 118, 7-Methoxy-4-[1-oxo-2-(4-pyridyl)ethyl]-3-phenyl-benzofuran.hydrochloride] | 80
